# Data reported in the NIST ThermoML archive (doi:10.1016/j.fluid.2013.06.017).
# Numbers after ± are expanded uncertainties.
# Conditions: Liquid, Closed cell (Static) method
SMILES,vapor or sublimation pressure (258.15 K),vapor or sublimation pressure (268.15 K),vapor or sublimation pressure (278.15 K),vapor or sublimation pressure (288.15 K)
"CC(F)F [1,1-difluoroethane]",148.6 ± 1 kPa,219.4 ± 1.1 kPa,314.1 ± 1.1 kPa,437.8 ± 1.2 kPa
"F/C=C/C(F)(F)F [trans-1,3,3,3-tetrafluoropropene]",120.2 ± 1 kPa,179.3 ± 1 kPa,259.2 ± 1.1 kPa,364.2 ± 1.1 kPa
